In patent US20240260575A1, “AGRICULTURAL AND HORTICULTURAL FUNGICIDAL COMPOSITION” (Nippon Soda Co., Ltd., priority 2021, published 2024):

Legend:
[1] = system: gray mold pathogen (Botrytis cinerea); experiment: Gray mold antimicrobial test (growth inhibition rate); assay type: cell-based; parameters: growth inhibition rate, component (II) alone: concentration or dose not given beside the values
Procedure: (Test Example) Gray Mold Antimicrobial Test (Growth Inhibition Rate)
Conidiospores of a gray mold pathogen (Botrytis cinerea) were added to and dispersed in a yeast extract sucrose medium, and a component (I) and a component (II) dissolved in dimethyl sulfoxide at predetermined concentrations were further added and mixed thereto, and the resulting solution was dispensed onto a 96-well microplate and cultivated in the dark at 20° C. for 3 to 5 days. After the cultivation, the turbidity at a wavelength of 405 nm was measured by a microplate reader and compared with that in the untreated case to determine the growth inhibition rate (%) for the gray mold pathogen. The test was duplicately carried out. The results are shown in Tables 3 to 7 together with expected values calculated as follows.
Expected values were calculated by using Colby's equation: E=M+N−MN/100. Here, E denotes an expected value (%) of a growth inhibition rate, M denotes a growth inhibition rate (%) in using a component (I) alone, and N denotes a growth inhibition rate (%) in using a component (II) alone.
If the actually measured growth inhibition rate (%) of a composition of a component (I) and a component (II) is higher than the expected value, E, the composition of a component (I) and a component (II) is said to have exerted synergistic effect.

[2] = system: cucumber powdery mildew pathogen (Sphaerotheca fuliginea); experiment: Cucumber powdery mildew control test; assay type: in vivo; parameters: scale not given here; settings: for control value: sprayed onto cucumber seedlings
Text: (Test Example) Cucumber Powdery Mildew Control Test 1) Preparation of Drug Solution for Test […] The other components (II) were each formulated into an aqueous solution or suspension having a predetermined concentration. 2) Test A mixed solution of a component (I) and a component (II) at a predetermined concentration was sprayed onto cucumber seedlings (variety: “Shimo-shirazu, creeping type”, cotyledon stage). After natural drying at room temperature, conidiospores of a cucumber powdery mildew pathogen (Sphaerotheca fuliginea) were inoculated by blushing off, and the seedlings were kept in a thermostatic room at 20° C. using a 12 hour light/dark cycle for 7 to 10 days. The states of lesion development on leaves were examined by comparing with that for the untreated case, and the control values were determined. The test was duplicately carried out. The results are shown in Tables 8 to 12 together with expected values calculated as follows. Expected values were calculated by using Colby's equation: […] Here, E denotes an expected value of a control value, M denotes a control value in using a component (I) alone, and N denotes a control value in using a component (II) alone. If the actually measured control value of a composition of a component (I) and a component (II) is higher than the expected value, E, the composition of a component (I) and a component (II) is said to have exerted synergistic effect.

[3] = Table 3, ppm: Ipflufenoquin 10, Cyflufenamid 10, Thiophamate-methyl 0.4, Iminoctadine acetate 0.08, Iminoctadine albesilate 0.08, Triflumizole 0.0032, Picarbutrazox 0.08, Prothioconazole 0.0032, Mefentrifluconazole 0.00064, Cymoxanil 10, Fludioxonil 0.016, Metyltetraprole 0.4, Florylpicoxamid 0.08, Fluxapyroxad 0.08, Fluopyram 0.4, Potassium phosphite 10, Fipronil 2, Chlorantraniliprole 0.016, Aba
[4] = Table 4, ppm: Ipflufenoquin 10, Cyflufenamid 2, Thiophamate-methyl 0.4, Iminoctadine acetate 0.08, Iminoctadine albesilate 0.4, Picarbutrazox 10, Prothioconazole 0.0032, Mefentrifluconazole 0.0006, Cymoxanil 10, Fludioxonil 0.016, Metyltetraprole 10, Fluxapyroxad 0.016, Fluopyram 0.4, Potassium phosphite 10, Fipronil 2, Chlorantraniliprole 0.016, Abamectin 0.016, Sulfoxaflor 10, Tebufenozide 0.016
[5] = Table 5, ppm: Ipflufenoquin 10, Cyflufenamid 10, Thiophamate-methyl 0.4, Iminoctadine albesilate 0.4, Picarbutrazox 0.0032, Mefentrifluconazole 0.0006, Cymoxanil 10, Captan 0.0032, Fludioxonil 0.016, Metyltetraprole 10, Florylpicoxamid 0.0001, Fluxapyroxad 0.016, Fluopyram 0.0032, Potassium phosphite 0.08, Fipronil 2, Chlorantraniliprole 0.016, Abamectin 0.4, Sulfoxaflor 0.4, Tebufenozide 10
[6] = Table 7, ppm: Ipflufenoquin 0.08, Cyflufenamid 0.08, Thiophamate-methyl 2, Iminoctadine acetate 0.0001, Iminoctadine albesilate 0.4, Triflumizole 0.4, Prothioconazole 0.0032, Mefentrifluconazole 0.08, Cymoxanil 0.08, Captan 0.08, Fludioxonil 0.08, Metyltetraprole 0.0032, Florylpicoxamid 0.0006, Fluxapyroxad 0.016, Fluopyram 0.0032, Potassium phosphite 0.016, Fipronil 2, Chlorantraniliprole 0.016
[7] = Table 8, ppm or dilution rate: Thiophanate-methyl 1.6, Triflumizole 25, Cyflufenamid 1.6, Iminoctadine acetate 0.25, Iminoctadine albesilate 1, Picarbutrazox 2000, Ipflufenoquin 1, Bacillus subtilis ×250, Pseudomonas rhodesiae ×2000, Sodium hydrogen carbonate 250, Potassium bicarbonate 250, Orange oil 4000, Linalool 4000, Thymol 100, Neem oil 2000, Prothioconazole 1.6, Mancozeb 63, Mineral oil 500
[8] = Table 9, ppm or dilution rate: Thiophanate-methyl 1.6, Triflumizole 25, Cyflufenamid 1.6, Iminoctadine acetate 0.25, Iminoctadine albesilate 1, Picarbutrazox 2000, Ipflufenoquin 1, Bacillus subtilis ×250, Pseudomonas rhodesiae ×2000, Sodium hydrogen carbonate 250, Potassium bicarbonate 250, Orange oil 1000, Linalool 4000, Thymol 100, Neem oil 2000, Prothioconazole 1.6, Mancozeb 63, Mineral oil 500
[9] = Table 10, ppm or dilution rate: Thiophanate-methyl 1.6, Triflumizole 25, Cyflufenamid 1.6, Iminoctadine acetate 0.25, Iminoctadine albesilate 1, Picarbutrazox 2000, Ipflufenoquin 1, Bacillus subtilis ×1000, Pseudomonas rhodesiae ×2000, Sodium hydrogen carbonate 250, Potassium bicarbonate 250, Orange oil 1000, Linalool 4000, Thymol 100, Neem oil 2000, Prothioconazole 1.6, Mancozeb 63, Mineral oil 5
[10] = Table 11, ppm or dilution rate: Thiophanate-methyl 1.6, Triflumizole 25, Cyflufenamid 1.6, Iminoctadine acetate 1, Iminoctadine albesilate 1, Picarbutrazox 2000, Ipflufenoquin 1, Bacillus subtilis ×1000, Pseudomonas rhodesiae ×2000, Sodium hydrogen carbonate 250, Potassium bicarbonate 250, Orange oil 1000, Linalool 4000, Thymol 100, Neem oil 2000, Prothioconazole 1.6, Mancozeb 63, Mineral oil 500
[11] = Table 12, ppm or dilution rate: Thiophanate-methyl 1.6, Triflumizole 25, Cyflufenamid 1.6, Iminoctadine acetate 0.25, Iminoctadine albesilate 1, Picarbutrazox 2000, Ipflufenoquin 1, Bacillus subtilis ×1000, Pseudomonas rhodesiae ×2000, Sodium hydrogen carbonate 1000, Potassium bicarbonate 250, Orange oil 1000, Linalool 4000, Thymol 400, Neem oil 2000, Prothioconazole 1.6, Mancozeb 63, Mineral oil
[12] = Table 6, ppm: Ipflufenoquin 10, Cyflufenamid 0.08, Thiophamate-methyl 2, Triflumizole 0.08, Picarbutrazox 0.0016, Prothioconazole 0.0006, Mefentrifluconazole 0.08, Cymoxanil 0.08, Captan 0.08, Fludioxonil 0.016, Metyltetraprole 10, Florylpicoxamid 0.0006, Fluxapyroxad 0.0032, Fluopyram 0.016, Potassium phosphite 0.016, Fipronil 10, Chlorantraniliprole 0.08, Abamectin 2, Sulfoxaflor 0.08, Tebufenoz

SMILES | growth inhibition rate, component (II) alone [1, 3] [%] | growth inhibition rate, component (II) alone [1, 4] [%] | growth inhibition rate, component (II) alone [1, 5] [%] | growth inhibition rate, component (II) alone [1, 6] [%] | control value, component (II) alone [2, 7] | control value, component (II) alone [2, 8] | control value, component (II) alone [2, 9] | control value, component (II) alone [2, 10] | control value, component (II) alone [2, 11] | growth inhibition rate, component (II) alone [1, 12] [%] | also measured
COc1ccccc1C(O)Cn1cc(/C(C)=N/OC(C)C)c(=O)n(C[C@H](C)NC(=O)C(C)C)c1=O (stereo partly shown) [Compound 4] | – | – | – | – | – | – | – | – | – | – | growth inhibition rate ([1]; Table 6, Examination 1, Compound 4 (0.25 or 0.063 ppm) alone or mixed with component (II)): 56%; growth inhibition rate ([1]; Table 6, Examination 2, Compound 4 (0.25 or 0.063 ppm) alone or mixed with component (II)): 31%; growth inhibition rate ([1]; Table 6, Examination 3, Compound 4 (0.25 or 0.063 ppm) alone or mixed with component (II)): 6%; growth inhibition rate ([1]; Table 6, Examination 4, Compound 4 (0.25 or 0.063 ppm) alone or mixed with component (II)): 4%; growth inhibition rate ([1]; Table 6, Examination 5, Compound 4 (0.25 or 0.063 ppm) alone or mixed with component (II)): 4%; growth inhibition rate ([1]; Table 6, Examination 6, Compound 4 (0.25 or 0.063 ppm) alone or mixed with component (II)): 3%; control value ([2]; Table 11, Examination 1, Compound 4 0.4 ppm alone or mixed with component (II)): 78; control value ([2]; Table 11, Examination 2, Compound 4 0.4 ppm alone or mixed with component (II)): 64; control value ([2]; Table 11, Examination 3, Compound 4 0.4 ppm alone or mixed with component (II)): 63; control value ([2]; Table 11, Examination 4, Compound 4 0.4 ppm alone or mixed with component (II)): 59; control value ([2]; Table 11, Examination 5, Compound 4 0.4 ppm alone or mixed with component (II)): 59; control value ([2]; Table 11, Examination 6, Compound 4 0.4 ppm alone or mixed with component (II)): 67
COc1ccc(F)cc1C(Cn1cc(/C(C)=N/OC(C)C)c(=O)n(C[C@H](C)NC(=O)C(C)C)c1=O)OCCC#N (stereo partly shown) [Compound 5] | – | – | – | – | – | – | – | – | – | – | growth inhibition rate ([1]; Table 7, Examination 1, Compound 5 (0.25 or 0.063 ppm, head span unclear) alone or mixed with component (II)): 61%; growth inhibition rate ([1]; Table 7, Examination 2, Compound 5 (0.25 or 0.063 ppm, head span unclear) alone or mixed with component (II)): 43%; growth inhibition rate ([1]; Table 7, Examination 3, Compound 5 (0.25 or 0.063 ppm, head span unclear) alone or mixed with component (II)): 13%; growth inhibition rate ([1]; Table 7, Examination 4, Compound 5 (0.25 or 0.063 ppm, head span unclear) alone or mixed with component (II)): 3%; growth inhibition rate ([1]; Table 7, Examination 5, Compound 5 (0.25 or 0.063 ppm, head span unclear) alone or mixed with component (II)): 3%; growth inhibition rate ([1]; Table 7, Examination 6, Compound 5 (0.25 or 0.063 ppm, head span unclear) alone or mixed with component (II)): 2%; control value ([2]; Table 12, Examination 1, Compound 5 0.4 ppm alone or mixed with component (II)): 83; control value ([2]; Table 12, Examination 2, Compound 5 0.4 ppm alone or mixed with component (II)): 60; control value ([2]; Table 12, Examination 3, Compound 5 0.4 ppm alone or mixed with component (II)): 56; control value ([2]; Table 12, Examination 4, Compound 5 0.4 ppm alone or mixed with component (II)): 50; control value ([2]; Table 12, Examination 5, Compound 5 0.4 ppm alone or mixed with component (II)): 67; control value ([2]; Table 12, Examination 6, Compound 5 0.4 ppm alone or mixed with component (II)): 50; control value ([2]; Table 12, Examination 7, Compound 5 0.4 ppm alone or mixed with component (II)): 67
CCCCCCCCCCCCc1ccc(S(=O)(=O)O)cc1.CCCCCCCCCCCCc1ccc(S(=O)(=O)O)cc1.CCCCCCCCCCCCc1ccc(S(=O)(=O)O)cc1.NC(N)=NCCCCCCCCNCCCCCCCCN=C(N)N [Iminoctadine albesilate] | 6 | 81 | 81 | 81 | 50 | 67 | 50 | 67 | 17 | – | –
Cn1nnnc1/C(=N\OCc1cccc(NC(=O)OC(C)(C)C)n1)c1ccccc1 [Picarbutrazox] | 0 | 12 | 1 | – | 50 | 50 | 50 | 50 | 50 | 12 | –
Cc1nc2c(F)c(F)ccc2cc1Oc1cccc(F)c1C(C)(C)O [Ipflufenoquin] | 4 | 4 | 4 | 0 | 27 | 27 | 27 | 27 | 27 | 4 | –
CC(=O)O.CC(=O)O.CC(=O)O.NC(N)=NCCCCCCCCNCCCCCCCCN=C(N)N [Iminoctadine acetate] | 25 | 56 | – | 0 | 0 | 50 | 0 | 50 | 17 | – | –
